From PMC5881531 (FEBS Open Bio, 2018)

Target: T1, Dihydroorotate dehydrogenase of Trypanosoma brucei (TbDHODH), FMN-free form (Trypanosoma brucei, UniProt Q57U83, A115V)
T1 construct: gene Tb927.5.3830
Assay: biochemical

T1 sequence (Q57U83 whole entry A115V): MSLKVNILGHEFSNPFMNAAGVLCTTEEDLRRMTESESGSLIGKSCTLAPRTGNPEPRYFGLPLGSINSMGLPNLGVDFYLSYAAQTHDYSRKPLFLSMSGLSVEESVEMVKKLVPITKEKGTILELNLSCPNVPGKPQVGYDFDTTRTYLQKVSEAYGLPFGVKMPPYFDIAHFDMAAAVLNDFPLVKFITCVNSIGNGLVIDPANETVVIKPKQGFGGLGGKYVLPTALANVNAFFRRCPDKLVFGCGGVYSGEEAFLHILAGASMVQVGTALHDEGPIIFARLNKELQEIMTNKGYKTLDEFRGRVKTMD

## Cc1cc2nc3c(=O)[nH]c(=O)nc-3n(C[C@H](O)[C@H](O)[C@H](O)COP(=O)(O)O)c2cc1C [FMN]
  Kd: 12 nM
